≈ marks a conversion by molar mass, not a printed value.
Settings: 25 °C

Going from `CCCCCCCl` to `CCCCCCl`, the solubility rises from 0.754 mM (≈ 91 µg/mL) to 1.85 mM (≈ 197 µg/mL) (2.5-fold).

Compared with `c1ccc(NNc2ccccc2)cc1`, `CCNc1ccccc1` is 17-fold higher in solubility: 1.2 mM (≈ 221 µg/mL) for the first, 19.9 mM (≈ 2410 µg/mL) for the second.

Compared with `CCCCC(=O)OC`, `CCCNCCC` is 13-fold higher in solubility: 43.6 mM (≈ 5060 µg/mL) for the first, 579 mM (≈ 58600 µg/mL) for the second.

First: CC(O)CNCC(C)O (centres undefined)
Second: COC(=O)c1ccc(C(=O)OC)cc1
The solubility of the first is 66000-fold higher: 6490 mM (≈ 865000 µg/mL) for the first, 0.0978 mM (≈ 19 µg/mL) for the second.

Compared with `Nc1cccc(C(F)(F)F)c1`, `Brc1cccc(Br)c1Br` is 3700-fold lower in solubility: 33.9 mM (≈ 5450 µg/mL) for the first, 0.00912 mM (≈ 2.87 µg/mL) for the second.

Going from `Cc1cc(O)ccc1Cl` to `Brc1ccc2ccccc2c1`, the solubility falls from 26.9 mM (≈ 3830 µg/mL) to 0.0398 mM (≈ 8.24 µg/mL) (680-fold).

`CCCOC(=O)c1ccccc1` and `CCC(C)(C)Cl` are within 1.5-fold of each other in solubility: 2.14 mM (≈ 351 µg/mL) for the first, 3.09 mM (≈ 329 µg/mL) for the second.
